Data: patent US11464749B2, “Bismuth-thiol compositions and methods of use” (Microbion Corporation, priority 2018, dated 2022)
Values after ≈ are worked out from the molar mass of the structure shown. Values joined by “and” are separate entries in the source; they are usually repeats but may differ in a detail not shown here. Equal entries are not always repeated. Where two headings read alike, the source gives them in different places.

Legend:
[1] = test system: S. pneumoniae; assay: Broth microdilution MIC (Example 11); conditions: Streptococcus pneumoniae
[2] = test system: S. pyogenes; assay: Broth microdilution MIC (Example 11); conditions: Streptococcus pyogenes
[3] = test system: Pseudomonas aeruginosa; assay: Broth microdilution MIC (Example 11); conditions: Pseudomonas aeruginosa
[4] = test system: Escherichia coli; assay: Broth microdilution MIC (Example 11)
[5] = test system: P. aeruginosa; assay: FIC checkerboard assay; type: cell-based; conditions: for MIC: Pseudomonas aeruginosa
[6] = test system: S. agalactiae; assay: Broth microdilution MIC (Example 11); conditions: Streptococcus agalactiae
[7] = test system: B. cepacia; assay: FIC checkerboard assay; type: cell-based; conditions: Burkholderia cepacia, Meropenem alone (checkerboard with BisEDT), read-out: Drug B MIC
[8] = test system: Klebsiella pneumoniae; assay: Broth microdilution MIC (Example 11)
[9] = test system: Staphylococcus aureus (MRSA); assay: Broth microdilution MIC (Example 11)
[10] = test system: Enterobacter cloacae; assay: Broth microdilution MIC (Example 11); conditions: ATCCBAA2468
[11] = test system: B. cenocepacia; assay: FIC checkerboard assay; type: cell-based; conditions: for FICB: FIC of Meropenem in combination with BisEDT; for FICB / MICB: per checkerboard row; for MICB: MIC of Meropenem in combination with BisEDT; for MIC: Burkholderia cenocepacia, Meropenem alone (panel with BisEDT), read-out: Drug B MIC
[12] = test system: E. faecalis; assay: Broth microdilution MIC (Example 11); conditions: Enterococcus faecalis, VRE, VRE Lev^R Cip^R Ery^R

Compound: C[C@@H](O)[C@H]1C(=O)N2C(C(=O)O)=C(S[C@@H]3CN[C@H](C(=O)N(C)C)C3)[C@H](C)[C@H]12 [Meropenem, reference compound]
- MIC ([1]; ATCC49619, S. pneumoniae MMX 6837 (ATCC 49619), QC): 0.06 µg/mL (≈ 0.156 µM)
- MIC ([1]; S. pneumoniae MMX 880, Lev^R SXT^R CC^R Ery^R Pen^R): 0.5 µg/mL (≈ 1.3 µM)
- MIC ([1]; S. pneumoniae MMX 937, Mem^R SXT^R CC^R Ery^R Pen^R): 1 µg/mL (≈ 2.61 µM)
- MIC ([1]; S. pneumoniae MMX 3959, CC^R Ery^R): 0.03 µg/mL (≈ 0.0782 µM)
- MIC ([1]; S. pneumoniae MMX 5440, Mem^R SXT^R CC^R Ery^R Pen^R): 1 µg/mL (≈ 2.61 µM)
- MIC ([1]; S. pneumoniae MMX 5445, Mem^R SXT^R CC^R Ery^R Pen^R): 1 µg/mL (≈ 2.61 µM)
- MIC ([1]; S. pneumoniae MMX 8133, Mem^R SXT^R CC^R Ery^R Pen^R): 1 µg/mL (≈ 2.61 µM)
- MIC ([2]; S. pyogenes MMX 3068, Ery^R): ≤ 0.008 µg/mL
- MIC ([2]; S. pyogenes MMX 3820, ERY^R CLI^R): ≤ 0.008 µg/mL
- MIC ([2]; S. pyogenes MMX 3919, ERY^R): ≤ 0.008 µg/mL
- MIC ([2]; S. pyogenes MMX 3929, ERY^R CC^R): ≤ 0.008 µg/mL
- MIC ([2]; S. pyogenes MMX 5091, ERY^R CC^R): ≤ 0.008 µg/mL
- MIC ([3]; ATCC27853, P. aeruginosa MMX 103 (ATCC 27853), QC): 0.5 µg/mL (≈ 1.3 µM)
- MIC ([3]; P. aeruginosa MMX 1381, MDR, Lev^R, Cip^R, MEM^R, CAZ^R): 16 µg/mL (≈ 41.7 µM)
- MIC ([3]; P. aeruginosa MMX 2562, MDR, Lev^R, Cip^R, MEM^R, CAZ^R): 32 µg/mL (≈ 83.4 µM)
- MIC ([3]; P. aeruginosa MMX 3991, MDR, Lev^R, Cip^R, MEM^R, CAZ^R): 16 µg/mL (≈ 41.7 µM)
- MIC ([3]; P. aeruginosa MMX 4654, IMP-7, Lev^R, Cip^R, MEM^R, CAZ^R): > 64 µg/mL
- MIC ([3]; P. aeruginosa MMX 4697, VIM-2, Lev^R, Cip^R, MEM^R, CAZ^R): 8 µg/mL (≈ 20.9 µM)
- MIC ([4]; ATCC25922, E. coli MMX 102 (ATCC 25922), QC): 0.03 µg/mL (≈ 0.0782 µM)
- MIC ([4]; ATCCBAA2469, E. coli MMX 5980 (ATCC BAA-2469), NDM-1, Lev^R, MEM^R, CAZ^R, Gm^R): 32 µg/mL (≈ 83.4 µM)
- MIC ([4]; E. coli MMX 8423, ESBL, Lev^R, CAZ^R, Gm^R): 0.03 µg/mL (≈ 0.0782 µM)
- MIC ([4]; E. coli MMX 8424, ESBL, CAZ^R): 0.03 µg/mL (≈ 0.0782 µM)
- MIC ([4]; E. coli MMX 8425, ESBL, Lev^R, CAZ^R, Gm^R): 0.015 µg/mL (≈ 0.0391 µM)
- MICB (Drug B in combination) ([5]; P. aeruginosa 6322, with BisEDT, checkerboard rows C-G): 16 µg/mL
- MIC ([5]; P. aeruginosa 6322, checkerboard panel BisEDT/Meropenem, read-out: Drug B MIC (alone)): 16 µg/mL
- MIC ([5]; P. aeruginosa 6977, Meropenem alone (checkerboard with BisEDT), read-out: Drug B MIC): 8 µg/mL
- MIC ([5]; P. aeruginosa 7745, Meropenem alone (checkerboard with BisEDT), read-out: Drug B MIC): 16 µg/mL
- MIC ([5]; P. aeruginosa 8798, Meropenem alone (checkerboard with BisEDT), read-out: Drug B MIC): 32 µg/mL
- MIC ([5]; P. aeruginosa 9108, Meropenem alone (checkerboard with BisEDT), read-out: Drug B MIC): 1 µg/mL
- MIC ([6]; S. agalactiae MMX 3741, ERY^R CC^R): 0.03 µg/mL (≈ 0.0782 µM)
- MIC ([6]; S. agalactiae MMX 3743, ERY^R CC^R): 0.06 µg/mL (≈ 0.156 µM)
- MIC ([6]; S. agalactiae MMX 4077, ERY^R CC^R): 0.06 µg/mL (≈ 0.156 µM)
- MIC ([6]; S. agalactiae MMX 4079, ERY^R CC^R Pen^R MEM^R): 8 µg/mL (≈ 20.9 µM)
- MIC ([6]; S. agalactiae MMX 4086, ERY^R CC^R): 0.06 µg/mL (≈ 0.156 µM)
- MIC ([7]; B. cepacia 546): 4 µg/mL
- MIC ([7]; B. cepacia 1793): 4 µg/mL
- MIC ([8]; K. pneumoniae MMX 4622, KPC-2, MEM^R, CAZ^R): > 64 µg/mL
- MIC ([8]; K. pneumoniae MMX 4623, KPC-2, MEM^R, CAZ^R, GM^R): > 64 µg/mL
- MIC ([8]; K. pneumoniae MMX 4653, KPC-3, Lev^R, MEM^R, CAZ^R): > 64 µg/mL
- MIC ([8]; K. pneumoniae MMX 4683, KPC-2, Lev^R, MEM^R, CAZ^R): 32 µg/mL (≈ 83.4 µM)
- MIC ([8]; K. pneumoniae MMX 4684, ESBL, MEM^R): 8 µg/mL (≈ 20.9 µM)
- MIC ([8]; K. pneumoniae MMX 4685, ESBL, Lev^R, MEM^R, CAZ^R): 4 µg/mL (≈ 10.4 µM)
- MIC ([8]; K. pneumoniae MMX 4694, KPC-3, Lev^R, MEM^R, CAZ^R): 32 µg/mL (≈ 83.4 µM)
- MIC ([8]; K. pneumoniae MMX 5979, NDM-1, Lev^R, MEM^R, CAZ^R, Gm^R): > 64 µg/mL
- MIC ([9]; ATCC29213|MRSA|MSSA, S. aureus MMX 101 (ATCC 29213), QC, MSSA): 0.06 µg/mL (≈ 0.156 µM)
- MIC ([9]; MRSA, S. aureus MMX 5373, MRSA Lev^R Cip^R CC^R Ery^R Ox^R): 32 µg/mL (≈ 83.4 µM)
- MIC ([9]; MRSA, S. aureus MMX 6311, MRSA Lev^R Cip^R CC^R Ery^R Ox^R): 8 µg/mL (≈ 20.9 µM)
- MIC ([9]; MRSA, S. aureus MMX 9203, MRSA Lev^R Cip^R Ery^R Ox^R): 4 µg/mL (≈ 10.4 µM)
- MIC ([9]; MRSA, S. aureus MMX 9204, MRSA Lev^R Cip^R Ery^R Ox^R): 4 µg/mL (≈ 10.4 µM)
- MIC ([9]; MRSA, S. aureus MMX 9205, MRSA Lev^R Cip^R CC^R Ery^R Ox^R): 64 µg/mL (≈ 167 µM)
- MIC [10]: > 64 µg/mL
- FICB ([11]; B. cenocepacia 548): 0.5 and 1
- MICB ([11]; B. cenocepacia 548): 2 µg/mL and 4 µg/mL
- FICB ([11]; B. cenocepacia 813): 0.5 and 1
- MICB ([11]; B. cenocepacia 813): 1 µg/mL and 2 µg/mL
- MIC ([11]; B. cenocepacia 548): 4 µg/mL
- MIC ([11]; B. cenocepacia 813): 2 µg/mL
- MIC ([12]; E. faecalis MMX 8960): 8 µg/mL (≈ 20.9 µM)
- MIC ([12]; E. faecalis MMX 8961): 8 µg/mL (≈ 20.9 µM)
- MIC ([12]; E. faecalis MMX 8962): 2 µg/mL (≈ 5.22 µM)
